Source: ChEMBL document CHEMBL2375231, “Tricyclic thiazoles are a new class of angiogenesis inhibitors” (Bioorg Med Chem Lett, 2013)

Tests used:
HUVEC [1] = test: Antiangiogenic activity against human HUVEC cells assessed as inhibition of [3H]thymidine incorporation incubated for 24 hrs prior to [3H]thymidine addition measured after 6 hrs by microbeta counting analysis; type: functional, cell-based
HUVEC [2] = test: Antiangiogenic activity against human HUVEC cells assessed as inhibition of tube formation after 16 to 18 hrs by Calcein-AM staining-based fluorescence microscopic analysis; type: functional, cell-based
HUVEC [3] = test: Selectivity ratio of IC50 for human BT474 cells to IC50 for human HUVEC cells; type: functional
BT-474 = test: Antiproliferative activity against human BT474 cells assessed as inhibition of [3H]thymidine incorporation incubated for 24 hrs prior to [3H]thymidine addition measured after 6 hrs by microbeta counting analysis; type: functional, cell-based
HeLa [4] = test: Antiproliferative activity against human HeLa cells assessed as inhibition of [3H]thymidine incorporation incubated for 24 hrs prior to [3H]thymidine addition measured after 6 hrs by microbeta counting analysis; type: functional, cell-based
[5] = Antiproliferative activity against human Jurkat T cells assessed as inhibition of [3H]thymidine incorporation incubated for 24 hrs prior to [3H]thymidine addition measured after 6 hrs by microbeta counting analysis; type: functional, cell-based
HUVEC [6] = test: Selectivity ratio of IC50 for human Jurkat T cells to IC50 for human HUVEC cells; type: functional
HeLa [7] = test: Selectivity ratio of IC50 for human HeLa cells to IC50 for human HUVEC cells; type: functional
HUVEC [8] = test: Antiangiogenic activity against human HUVEC cells assessed as inhibition of tube formation at 5 uM after 16 to 18 hrs by Calcein-AM staining-based fluorescence microscopic analysis; type: functional

IC50 (BT-474) [µM]	IC50 (HeLa [4]) [µM]	SMILES	IC50 (HUVEC [1]) [µM]	IC50 [5] [µM]	other results
		COc1ccc2c(c1)-c1nc(NC(C)=O)sc1CC2	4.2		
2.3	10.3	Clc1ccc2c(c1)-c1nc(NCc3ccco3)sc1CS2	1.1	2.5	inhibition (HUVEC [2]): Dose-dependent effect; Ratio IC50 (HUVEC [3]): 2.1; Ratio IC50 (HUVEC [6]): 2.3; Ratio IC50 (HeLa [7]): 9.4
5.9	8	CCC(=O)Nc1nc2c(s1)CSc1ccccc1-2	2	4.9	Ratio IC50 (HUVEC [3]): 3; Ratio IC50 (HUVEC [6]): 2.5; Ratio IC50 (HeLa [7]): 4
		Nc1nc2c(s1)CCOc1cc3c(cc1-2)OCO3	5.1		
		CCC(=O)Nc1nc2c(s1)COc1ccc(F)cc1-2	> 10		
		CCC(=O)Nc1nc2c(s1)CCc1cc(OC)c(OC)cc1-2	> 10		
6.2	6.5	CCOC(=O)Nc1nc2c(s1)CSc1ccc(Cl)cc1-2	2.8	6.3	Ratio IC50 (HUVEC [3]): 2.2; Ratio IC50 (HUVEC [6]): 2.3; Ratio IC50 (HeLa [7]): 2.3
		CCCCCC(=O)Nc1nc2c(s1)CCc1ccccc1-2	3		
> 20	5.9	CCC(=O)N(C(=O)CC)c1nc2c(s1)CCCc1ccccc1-2	1.5	2.8	Ratio IC50 (HUVEC [3]): >13; Ratio IC50 (HUVEC [6]): 1.9; Ratio IC50 (HeLa [7]): 4
> 20	> 20	O=C(Nc1nc2c(s1)CCCc1ccc(F)cc1-2)c1c(F)cccc1F	13.5	> 20	
		CCCCCC(=O)Nc1nc2c(s1)CCc1cc(OC)ccc1-2	3.7		
		CC(=O)Nc1nc(-c2ccc(Cl)cc2)cs1	> 10		
		CCC(=O)Nc1nc2c(s1)COc1ccccc1-2	> 10		
> 20	> 20	CCOC(=O)Nc1nc2c(s1)CCCc1ccccc1-2	9.2	> 20	
3.6	> 20	O=C(Nc1nc2c(s1)CSc1ccc(Cl)cc1-2)c1c(F)cccc1F	5.2	17.3	Ratio IC50 (HUVEC [3]): 0.7; Ratio IC50 (HUVEC [6]): 3.3; Ratio IC50 (HeLa [7]): >4
> 20	> 20	Nc1nc2c(s1)CCCc1ccccc1-2	19.1	> 20	
		Nc1nc2c(s1)CCc1ccccc1-2	> 10		
		COc1ccc(-c2csc(NC(C)=O)n2)cc1OC	> 10		
> 20	16.2	Nc1nc2c(s1)CCCc1ccc(F)cc1-2	14.8	> 20	
		C#CCOc1ccc(C(=O)Nc2nc3c(s2)CCCc2ccccc2-3)cc1	7.3		
8.2	6.8	Nc1nc2c(s1)CSc1ccccc1-2	1.9	0.9	Ratio IC50 (HUVEC [3]): 4.3; Ratio IC50 (HUVEC [6]): 0.5; Ratio IC50 (HeLa [7]): 3.6
> 20	> 20	CCC(=O)Nc1nc2c(s1)CCCc1ccccc1-2	3.7	> 20	Ratio IC50 (HUVEC [3]): >5; Ratio IC50 (HUVEC [6]): >5; Ratio IC50 (HeLa [7]): >5
		Nc1nc2c(s1)COc1ccc(F)cc1-2	> 10		
		COc1ccc2c(c1)CCc1sc(NC(C)=O)nc1-2	> 10		

IC50 (BT-474) [µM]	IC50 (HeLa [4]) [µM]	SMILES	IC50 (HUVEC [1]) [µM]	IC50 [5] [µM]	other results
		Nc1nc2c(s1)COc1ccccc1-2	> 10		
		CCC(=O)Nc1nc2c(s1)CCCC2	> 10		
		CC(=O)Nc1nc2c(s1)-c1ccccc1CC2	> 10		
0.3	5	C#CCOc1ccc(C(=O)Nc2nc3c(s2)CSc2ccccc2-3)cc1	2.9	4.6	Ratio IC50 (HUVEC [3]): 0.1; Ratio IC50 (HUVEC [6]): 1.6; Ratio IC50 (HeLa [7]): 1.7
		Nc1nc2c(s1)CCCC2	> 10		
		COc1ccc2c(c1)-c1nc(N)sc1CC2	> 10		
		COc1cccc2c1CCc1sc(NC(C)=O)nc1-2	> 10		
		Nc1nc(-c2ccc(Cl)cc2)cs1	> 10		
		Nc1nc2c(s1)Cc1cc(F)ccc1-2	> 10		
		CC(=O)Nc1nc2c(s1)CCc1ccccc1-2	> 10		
7.2	13.1	O=C(Nc1nc2c(s1)CSc1ccccc1-2)c1c(F)cccc1F	12	11.8	
> 20	15.2	O=C(Nc1nc2c(s1)CCCc1ccccc1-2)c1c(F)cccc1F	1.5	> 20	inhibition at 5 µM (HUVEC [8]): 75%; inhibition (HUVEC [2]): Dose-dependent effect; Ratio IC50 (HUVEC [3]): >13; Ratio IC50 (HUVEC [6]): >13; Ratio IC50 (HeLa [7]): 10
		COc1ccc2c(c1)Cc1sc(NC(C)=O)nc1-2	4.4		
		COc1cc2c(cc1OC)-c1nc(N)sc1CC2	> 10		
		COc1cccc2c1CCc1sc(N)nc1-2	> 10		
		CCC(=O)Nc1nc2c(s1)Cc1cc(F)ccc1-2	> 10		
		COc1ccc2c(c1)CCc1sc(N)nc1-2	> 10		
		COc1ccc(-c2csc(N)n2)cc1OC	> 10		
		COc1ccc2c(c1)CCc1sc(NCc3ccco3)nc1-2	4.5		
		Nc1nc2c(s1)-c1ccccc1CC2	> 10		
3.8	11.9	Nc1nc2c(s1)CSc1ccc(Cl)cc1-2	1.9	1.6	Ratio IC50 (HUVEC [3]): 2; Ratio IC50 (HUVEC [6]): 0.8; Ratio IC50 (HeLa [7]): 6.3
		COc1ccc2c(c1)Cc1sc(N)nc1-2	> 10		
		[N-]=[N+]=NCCCCCCNc1nc2c(s1)CSc1ccccc1-2	5.9		
